Measurements: US10925872B2, “Methods of treating cochlear synaptopathy” (PIPELINE THERAPEUTICS, INC., priority 2016, dated 2021)

Experiments:
[1] = tested on: Type I spiral ganglion neurons; assay: Type I spiral ganglion neuron neurite outgrowth with GSMs; assay type: cell-based, CD-1 mice; details: for EC50: 24 h treatment, Type I SGNs; for neurite outgrowth (length of Type I SGN neurites): varying concentrations, 24 h
Description: Spiral ganglion neurons (SGNs) were cultured from postnatal day 5 CD-1 mice using methods adapted from Whitlon D S, et al., Scientific Reports, 2015, 5, 15960, doi:10.1038/srep15960. Neurons were dissociated and plated onto collagen-coated 96-well plates in growth media (DMEM/F12, N2 and B27 serum supplements and penicillin/streptomycin). After 18 h in culture, neurons were treated with varying concentrations of RO or NGP-555 for 24 h. Neurons were fixed and stained with a rabbit b-tubulin (somato-axonal marker) antibody followed by a donkey-anti-rabbit secondary antibody conjugated to Alexa 568 and counterstained with Hoechst blue fluorescent dye to stain the DNA. Neurons were imaged on an InCell 2000. Neurite length was measured using ImageJ. Only β-tubulin^+ cells displaying bipolar morphology (indicative of Type I SGNs) were quantified.
To determine whether the netrin-DCC pathway is involved in GSM-induced neurite outgrowth, a function-blocking netrin antibody was applied to the media 1 h prior to addition of 1 μM test compound. After 24 h, neurons are stained with β-tubulin and only neurites from Type I neurons are analyzed. Co-application of the netrin antibody with test compound results in a significant reduction in neurite outgrowth (FIG. 4D).

[2] = tested on: synapses on inner hair cells; assay: Mouse noise-induced cochlear synaptopathy, oral GSM; assay type: in vivo, CBA/J mice; details: 98 dB 8-16 kHz noise 2 h; oral gavage from three weeks later; fourteen days later; 32 kHz region
Description: Female CBA/J mice were exposed to 98 dB 8-16 kHz filtered noise for 2 hours. Three weeks later, vehicle (0.5% Methylcellulose, b.i.d.), NGP-555 (50 mg/kg, b.i.d.) or RO (10 mg/kg, q.d.) was given by oral gavage. Fourteen days later, mice were euthanized, cochlea removed, then tissue was fixed by perfusion with 4% paraformaldehyde. Cochlea were washed with calcium/magnesium free PBS then decalcified in 12.5 mM EDTA for 3 days. Cochlea were bisected with a midmodiolar cut through the oval window to apex. Individual turns were then separated and stained with antibodies against Myo6 and CtBP2. Synapses per inner hair cell were quantified on the turn containing the 32 kHz region. Consistent with literature, a decrease in synaptic density (but no decrease in inner or outer hair cell number) was observed after the 98 dB insult.

[3] = tested on: DCC α-fragment; assay: DCC α-fragment Western blot, mouse ex vivo embryonic spinal cord; assay type: cell-based, CD-1 mice; details: embryonic day 15 spinal cord segments, 1 μM, 24 h, normalized to actin
From the text: (§1) Previous reports have shown that DCC (deleted in colorectal cancer) is a γ-secretase substrate. DCC is the receptor for the guidance molecule, netrin, and its activation results in neuronal axon outgrowth, axon turning and synapse formation. Embryonic spinal cords of presenilin knockout mice treated display persistent expression of the DCC α-fragment; these fragments can enhance netrin-DCC mediated events, including axon outgrowth in cultured motor neurons (Taniguchi et al., 2003, J. Biol. Chem., 278:30425-30428, and Bai et al., 2011, Cell, 144(1): 106-18). The following studies were performed using GSM, “RO”, as well as the GSI, Compound I. RO has the structure:
Spinal cords from embryonic day 15 CD-1 mice were collected and cut into 1-2 mm segments and transferred to serum-free growth media (DMEM-F12, N2 and B27 serum supplements, penicillin/streptomycin) with 1 μM RO or 1 μM Compound I. Segments were cultured for 24 h (37° C., 5% CO2) then processed for Western blot. Membranes were probed with a DCC antibody recognizing the intracellular domain and bands were normalized to actin.

[4] = tested on: DCC α-fragment; assay: DCC α-fragment Western blot, mouse ex vivo cochlea (spiral ganglion); assay type: cell-based, CD-1 mice; details: postnatal day 21 cochlea, 1 μM, 24 h, normalized to actin
From the text: as §1
Cochleae were obtained from postnatal day 21 CD-1 mice. An opening was made in the bone at the cochlear apex to allow for fluid flow. Cochlea were incubated in serum-free growth media (DMEM-F12, N2 and B27 serum supplements, penicillin/streptomycin) with 1 μM RO or 1 μM Compound I. After 24 h, spiral ganglion were isolated and processed for Western blot. Membranes were probed with a DCC antibody recognizing the intracellular domain and bands were normalized to actin.

[5] = tested on: Type I spiral ganglion neurons; assay: Type I spiral ganglion neuron neurite outgrowth with GSIs; assay type: cell-based, CD-1 mice; details: 24-48 h, 0.1% DMSO
Description: Mouse spiral ganglion neurons (SGN) were harvested from CD-1 mice (postnatal day 3 to 5), dissociated and cultured on collagen I in serum free media. Cells were treated for 24-48 h with test compound in 0.1% DMSO then immunostained with the neurite marker, Tuj1 and imaged. Neurite length was quantified using ImageJ software (developed by NIH and available publicly). Only Tuj1^+ cells with clear bipolar morphology characteristic of Type I SGNs were quantified. The test compounds were Compound I, Compound II, and RO4929097, as well as the Notch sparing GSI, BMS-708163; NT-3 was included as positive control. […] Moreover, BMS-708163, a Notch-sparing GSI, and Compound I, a Notch inhibiting GSI, both increased type I SGN neurite outgrowth (FIG. 6C).

[6] = tested on: inner hair cell synapses; assay: Guinea pig kanamycin-induced cochlear synaptopathy model; assay type: in vivo, Hartley guinea pigs; details: kanamycin 400 mg/kg i.p. 10 days; 30 μl of 2% in vehicle bilateral transtympanic on day 15; three months after
Description: Beginning on day 0, male Hartley guinea pigs (450-500 g) were deafened by intraperitoneal administration of kanamycin (400 mg/kg) dosed once daily for 10 consecutive days. […] A loss of synapse density in this model has not been described previously. On day 15, animals received bilateral transtympanic injections of vehicle (30 μl), crystalline Compound I (30 μl of 2% in vehicle), or crystalline Compound II (30 μl of 2% in vehicle). Three months after administration of test article, animals were euthanized and cochleae collected and stained with phalloidin and antibodies against CtBP2 and NF-200. The number of CtBP2+/NF-200+ synapses were quantified and normalized to the number of inner hair cells to obtain synapse density. Synapse density was decreased with kanamycin treatment at 14.7 and 17.3 mm from the apex of the cochlea, which in the guinea pig cochlea, tonally correlates with 16 and 32 kHz, respectively, according to the Greenwood frequency map.
Vehicle (PF10) and GSI in vehicle used in Examples 6 and 7 were prepared as follows: To 129 mL sterile water was added, 0.96 g sodium chloride, 0.59 g sodium phosphate dibasic, and 0.14 g sodium phosphate monobasic. The solution was stirred at ambient temperature and 25.6 g poloxamer 407 was added and stirred overnight to yield a clear solution. […]

[7] = tested on: inner hair cell synapses; details: noise-exposed mice, delivery to the round window niche; cited from earlier work

Molecule: Cc1cn(-c2ccc3n(c2=O)CCN([C@@H](C)[C@@H]2CC[C@H](c4cc(F)c(Cl)cc4C(F)(F)F)O2)C3=O)cn1 [PF-06648671]
- EC50 [1]: 0.303 nM
- neurite outgrowth (length of Type I SGN neurites) [1]: dose-dependence increases

Molecule: Cc1nsc(N2C[C@H]3CC[C@@H](C2)[C@@H]3Nc2nc3c(-c4ccc(F)c(F)c4F)cccn3n2)n1 [RO]
- EC50 ([1]; Mus musculus, Neuron): 24 nM
- neurite outgrowth (length of Type I SGN neurites) [1]: dose dependent increase
- number of synapses on inner hair cells (synaptic density) [2]: increase in synaptic density
- DCC α-fragment level compared to the vehicle group [3]: Increase in α-fragment
- DCC α-fragment level compared to the vehicle group [4]: Increase in α-fragment

Molecule: COc1ccc2c(c1)N1CCC(C)(C)C1=CC(=O)C2NC(=O)[C@H](C)NC(=O)CCC(F)(F)F (stereo partly drawn) [Compound X, 4,4,4-trifluoro-N-((2S)-1-((9-methoxy-3,3-dimethyl-5-oxo-2,3,5,6-tetrahydro-1H-benzo[f]pyrrolo[1,2-a]azepin-6-yl)amino)-1-oxopropan-2-yl)butanamide]
- lengths of Type I SGN neurites [5]: dose-dependent increase

Molecule: CCc1cc(Nc2nc(-c3ccc(-n4cnc(C)c4)c(F)c3)cs2)c(C)cc1C [NGP555]
- EC50 ([1]; Mus musculus, Neuron): 0.527 nM
- neurite outgrowth (length of Type I SGN neurites) [1]: dose dependent increase
- number of synapses on inner hair cells (synaptic density) [2]: significantly increased

Molecule: CN1C(=O)[C@@H](NC(=O)[C@](C)(F)C(=O)NCC(F)(F)C(F)(F)F)c2ccccc2-c2ccccc21 [Compound II, (2R)-2-fluoro-2-methyl-N—[(S)-5-methyl-6-oxo-6,7-dihydro-5H-dibenzo[b,d]azepin-7-yl]-N′-(2,2,3,3,3-pentafluoropropyl)malonamide]
- lengths of Type I SGN neurites [5]: significant increase
- synapse density (CtBP2+/NF-200+ synapses per inner hair cell) [6]: increased

Molecule: NC(=O)[C@@H](CCC(F)(F)F)N(Cc1ccc(-c2ncon2)cc1F)S(=O)(=O)c1ccc(Cl)cc1 [BMS-708163, reference compound]
- lengths of Type I SGN neurites [5]: increased

Molecule: CC(C)(C(=O)NCC(F)(F)C(F)(F)F)C(=O)N[C@@H]1C(=O)Nc2ccccc2-c2ccccc21 [RO4929097, reference compound]
- lengths of Type I SGN neurites [5]: significant increase

B1: NT-3: growth factor that binds to TrkC receptors; positive control (protein, UniProt P20783 139-257, looked up)
Neurotrophin-3: YAEHKSHRGEYSVCDSESLWVTDKSSAIDIRGHQVTVLGEIKTGNSPVKQYFYETRCKEARPVKNGCRGIDDKHWNSQCKTSQTYVRALTSENNKLVGWRWIRIDTSCVCALSRKIGRT
- ABR wave 1 amplitude [7]: improvement
- inner hair cell synapses [7]: recovered inner hair cell synapses
